The values that follow come from article PMC3914206.

For experiment [1], the target named is T1, panel of 442 kinases (Homo sapiens, UniProt Q96SB4).
T1 construct: purchased KINOMEscan
It is filed as binding. The conditions noted are these: kinase SRPK1; compound concentration 10 µM. An excerpt:
(§1) We assessed the selectivity of members of this scaffold using the KINOMEscan methodology across a near comprehensive panel of 442 kinases [[18,27]].

Experiment [2] addresses T2, panel of 442 kinases (Homo sapiens, UniProt Q8TD19).
T2 construct: purchased KINOMEscan
T2 sequence (Q8TD19 1-979): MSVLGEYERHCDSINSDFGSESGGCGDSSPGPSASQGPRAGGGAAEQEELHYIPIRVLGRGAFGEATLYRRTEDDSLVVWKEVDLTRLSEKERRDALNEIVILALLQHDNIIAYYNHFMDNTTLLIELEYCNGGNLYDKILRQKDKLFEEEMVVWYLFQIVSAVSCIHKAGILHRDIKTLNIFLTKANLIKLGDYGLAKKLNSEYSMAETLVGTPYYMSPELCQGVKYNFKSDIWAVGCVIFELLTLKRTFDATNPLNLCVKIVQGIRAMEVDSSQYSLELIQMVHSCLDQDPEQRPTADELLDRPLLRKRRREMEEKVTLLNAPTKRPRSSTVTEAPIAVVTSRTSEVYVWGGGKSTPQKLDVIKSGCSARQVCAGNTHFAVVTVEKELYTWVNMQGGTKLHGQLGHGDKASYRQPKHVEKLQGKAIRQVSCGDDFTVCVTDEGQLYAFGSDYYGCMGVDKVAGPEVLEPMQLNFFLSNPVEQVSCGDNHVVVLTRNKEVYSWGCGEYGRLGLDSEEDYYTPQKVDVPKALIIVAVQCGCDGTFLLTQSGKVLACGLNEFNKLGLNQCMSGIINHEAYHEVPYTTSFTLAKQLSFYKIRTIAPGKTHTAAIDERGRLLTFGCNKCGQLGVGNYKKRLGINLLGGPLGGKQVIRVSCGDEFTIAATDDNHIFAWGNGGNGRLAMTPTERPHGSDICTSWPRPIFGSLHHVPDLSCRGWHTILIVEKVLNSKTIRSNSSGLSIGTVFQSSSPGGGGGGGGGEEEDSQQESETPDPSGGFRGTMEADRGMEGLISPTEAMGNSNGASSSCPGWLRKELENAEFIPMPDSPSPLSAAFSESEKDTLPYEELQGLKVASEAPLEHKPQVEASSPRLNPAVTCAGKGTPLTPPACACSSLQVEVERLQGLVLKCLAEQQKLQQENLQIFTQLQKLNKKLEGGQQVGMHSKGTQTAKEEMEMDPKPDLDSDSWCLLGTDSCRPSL
It is filed as binding. The following applies: Compound Concentration 10 µM.
From the text: as §1

T1 sequence (Q96SB4 whole entry): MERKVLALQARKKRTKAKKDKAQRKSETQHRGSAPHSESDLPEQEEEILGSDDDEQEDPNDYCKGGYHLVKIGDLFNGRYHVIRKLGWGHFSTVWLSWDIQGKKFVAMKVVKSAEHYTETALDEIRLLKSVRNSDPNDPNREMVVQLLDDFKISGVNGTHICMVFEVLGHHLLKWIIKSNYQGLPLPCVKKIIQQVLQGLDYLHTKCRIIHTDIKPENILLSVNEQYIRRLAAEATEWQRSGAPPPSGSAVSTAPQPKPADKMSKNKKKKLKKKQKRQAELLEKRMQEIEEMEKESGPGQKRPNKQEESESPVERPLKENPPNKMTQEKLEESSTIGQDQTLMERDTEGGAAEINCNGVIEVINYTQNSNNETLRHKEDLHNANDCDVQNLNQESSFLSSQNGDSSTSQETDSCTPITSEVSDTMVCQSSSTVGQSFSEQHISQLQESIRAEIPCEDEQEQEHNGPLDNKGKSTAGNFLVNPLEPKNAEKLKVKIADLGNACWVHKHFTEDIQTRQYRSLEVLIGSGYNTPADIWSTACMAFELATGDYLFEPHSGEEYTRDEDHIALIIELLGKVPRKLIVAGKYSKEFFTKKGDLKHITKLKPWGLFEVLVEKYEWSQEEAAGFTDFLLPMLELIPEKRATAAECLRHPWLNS

For `COc1cc(C(=O)N2CCC(N3CCN(C)CC3)CC2)ccc1Nc1ncc2c(n1)N(C1CCCC1)c1ccccc1C(=O)N2C` [Compound 25, 11-cyclopentyl-2-((2-methoxy-4-(4-(4-methylpiperazin-1-yl)piperidine-1-carbonyl)phenyl)amino)-5-methyl-5H-benzo[e]pyrimido[5,4-b][1,4]diazepin-6(11H)-one], the “% Ctrl, SRPK1” value at panel of 442 kinases [1] was found to be 90 % Ctrl. At panel of 442 kinases [2], the “KINOMEscan: NEK9” value is given as 98.
The matching figures for `COc1cc(C(=O)N2CCC(N3CCN(C)CC3)CC2)ccc1Nc1ncc2c(n1)N1CCc3cccc(c31)C(=O)N2C` [Compound 24]: 74 % Ctrl and 87.
Turning to `COc1cc(C(=O)N2CCC(N3CCN(C)CC3)CC2)ccc1Nc1ncc2c(n1)N(C)c1ccccc1C(=O)N2C` [15 (LRRK2-IN-1)], at panel of 442 kinases [1], the “% Ctrl, SRPK1” value came to 94 % Ctrl. Besides, the “KINOMEscan: NEK9” value on panel of 442 kinases [2] is given as 100.
On to `CCOc1cc(C(=O)N2CCC(N3CCN(C)CC3)CC2)ccc1Nc1ncc2c(n1)N(C1CCCC1)c1ccccc1C(=O)N2C` [Compound 26], for which the “% Ctrl, SRPK1” value at panel of 442 kinases [1] is 100 % Ctrl. Further, the “KINOMEscan: NEK9” value at panel of 442 kinases [2] is listed as 100.
